4 compounds from US4898858A, “Cephalosporin derivatives and antibiotics containing the same” (Meiji Seika Kaisha Ltd., priority 1985, dated 1990) can be followed below.

Converted amounts (≈) assume the structure as drawn. Where two headings read alike, the source gives them in different places.

For assay [1], the system named is Klebsiella pneumoniae GN-69. Nature of the assay: minimum growth-inhibitory concentration (MIC) in vitro. It counts as cell-based.
Assay [2] relates to Pseudomonas aeruginosa E-2. The assay is described as above. The format is cell-based. Particulars: E2.
For assay [3], the system named is Proteus vulgais GN-76/C-1. Described as above. To be noted: for MIC: Proteus vulgaris, GN76, read-out: MIC-value.
Assay [4] concerns Salmonella enteritidis No.11. The description is as above. It counts as cell-based. To be noted: Salmonella enterica.
Assay [5] deals with Pseudomonas aeruginosa MB-3833. The description is as above. The format is cell-based. To be noted: MB3833.
In assay [6] the test system is Proteus rettgeri J-0026. The assay is described as above. The format is cell-based. Particulars: Providencia rettgeri, J0026.
The test system of assay [7] is Serratia marcescens GN-629. The assay is described as above. The format is cell-based. To be noted: GN629.
The subject of assay [8] is Escherichia coli ML1410. The description is as above. It counts as cell-based.
Assay [9] has as its system Enterobacter Cloacae G-0005. The assay is described as above. The format is cell-based.
The subject of assay [10] is Proteus vulgais GN-76. Described as above. The format is cell-based.
The subject of assay [11] is Staphylococcus aureus 209P JC-1. The assay is described as above. It counts as cell-based.
The test system of assay [12] is Klebsiella pneumoniae GN-118. The description is as above. The format is cell-based. To be noted: GN118.
The subject of assay [13] is Serratia marcescens GN-10857. Described as above. The format is cell-based. To be noted: GN10857.
Assay [14] concerns Escherichia coli NIHJ JC-2. Described as above. It counts as cell-based.
In assay [15] the test system is Staphylococcus aureus 606. Described as above. The format is cell-based.
Assay [16] concerns Salmonella typhimurium LT-2. Described as above. To be noted: Salmonella enterica. It counts as cell-based.
In assay [17] the test system is Enterobacter Cloacae G-0008. Described as above. It counts as cell-based.
The test system of assay [18] is Pseudomonas aeruginosa GN-10362. The assay is described as above. The format is cell-based. Particulars: GN10362.
The subject of assay [19] is Streptocuccus faecalis W-75. The description is as above. It counts as cell-based.
For assay [20], the system named is Proteus morganii 1510. Described as above. The format is cell-based. Particulars: Morganella morganii.
Assay [21] concerns Proteus rettgeri GN-624. The assay is described as above. It counts as cell-based. To be noted: Providencia rettgeri, GN624.
In assay [22] the test system is Staphylococcus aureus 606 E-25. The assay is described as above. It counts as cell-based. To be noted: 606E25.
Assay [23] deals with Escherichia coli No.29. The assay is described as above. The format is cell-based.
Assay [24] deals with Pseudomonas aeniginosa. Nature of the assay: MIC, comparison of the compounds of the present invention and the relevant compounds. The format is cell-based. Particulars: Table 2, strain not given, by substituent B.
Where [25] appears, read: GN69, Klebsiella pneumoniae GN-69, in vitro, read-out: MIC-value.
Setting [26] is: NIHJJC2, Escherichia coli NIHJ JC-2, in vitro, read-out: MIC-value.

For the compound `Nc1nc(/C(=N/OC(CF)C(=O)O)C(=O)N[C@@H]2C(=O)N3C(C(=O)[O-])=C(CSc4cc[n+](CCF)cc4)CS[C@H]23)cs1` (some centres unmarked) [Example 6], the MIC in assay [1] (Klebsiella pneumoniae, GN69, read-out: MIC-value) was less than 0.025 µg/mL; in assay [2] it was 1.56 µg/mL (≈ 2.48 µM); in assay [3] it was 0.1 µg/mL (≈ 0.159 µM); in [4] it was 0.05 µg/mL (≈ 0.0795 µM); in assay [5] it was 1.56 µg/mL (≈ 2.48 µM); in assay [6] it was 0.2 µg/mL (≈ 0.318 µM). The MIC in assay [7] is 0.2 µg/mL (≈ 0.318 µM); in assay [8], 0.1 µg/mL (≈ 0.159 µM); in assay [9], 0.05 µg/mL (≈ 0.0795 µM); in assay [10], 0.05 µg/mL (≈ 0.0795 µM); in assay [11] it was 1.56 µg/mL (≈ 2.48 µM); in assay [12] it was less than 0.025 µg/mL. Moreover, the MIC in [13] was 1.56 µg/mL (≈ 2.48 µM); in assay [14] (Escherichia coli, NIHJJC2, read-out: MIC-value) it was 0.05 µg/mL (≈ 0.0795 µM); in [15], 3.13 µg/mL (≈ 4.98 µM); in assay [16] it was less than 0.025 µg/mL; in [17], 0.1 µg/mL (≈ 0.159 µM); in assay [18], 3.13 µg/mL (≈ 4.98 µM). The MIC in assay [19] is 3.13 µg/mL (≈ 4.98 µM); in [20], 0.78 µg/mL (≈ 1.24 µM); in assay [21], less than 0.025 µg/mL; in [22], 3.13 µg/mL (≈ 4.98 µM); in assay [23], 0.1 µg/mL (≈ 0.159 µM).

Consider `C[C@H](O/N=C(\C(=O)N[C@@H]1C(=O)N2C(C(=O)[O-])=C(CSc3cc[n+](C)cc3)CS[C@H]12)c1csc(N)n1)C(=O)O` [Example 7, (6R,7R)-7-[(Z)-2-(2-Aminothiazol-4-yl)-2-{(1S)-carboxyethoxyimino}acetamid]-3-(1-methylpyridinium-4-ylthiomethyl)-ceph-3-em-4-carboxylate], for which the MIC was less than 0.025 µg/mL in assay [1] (setting [25]); 0.78 µg/mL (≈ 1.35 µM) in assay [2]; 0.05 µg/mL (≈ 0.0864 µM) in [3]; less than 0.025 µg/mL in assay [4]; 0.78 µg/mL (≈ 1.35 µM) in assay [5]; 0.1 µg/mL (≈ 0.173 µM) in assay [6]. In addition, the MIC in assay [7] was 0.1 µg/mL (≈ 0.173 µM); in assay [8], 0.1 µg/mL (≈ 0.173 µM); in assay [9], 0.05 µg/mL (≈ 0.0864 µM); in [10] it was 0.025 µg/mL (≈ 0.0432 µM); in assay [11], 1.56 µg/mL (≈ 2.7 µM); in [12], less than 0.025 µg/mL. Besides, the minimal inhibitory concentration (MIC) in assay [13] is 0.39 µg/mL (≈ 0.674 µM); in assay [14] (setting [26]), 0.1 µg/mL (≈ 0.173 µM); in [15], 3.13 µg/mL (≈ 5.41 µM); in assay [16], less than 0.025 µg/mL; in [17] it was 0.1 µg/mL (≈ 0.173 µM); in assay [18], 0.78 µg/mL (≈ 1.35 µM). Also, the MIC in assay [19] is 1.56 µg/mL (≈ 2.7 µM); in assay [20] it was 1.56 µg/mL (≈ 2.7 µM); in [21], less than 0.025 µg/mL; in assay [22], 3.13 µg/mL (≈ 5.41 µM); in [23], 0.1 µg/mL (≈ 0.173 µM).

Take `CC[n+]1ccc(SCC2=C(C(=O)[O-])N3C(=O)[C@@H](NC(=O)/C(=N\O[C@H](C)C(=O)O)c4csc(N)n4)[C@H]3SC2)cc1` [Example 9, (6R,7R)-7-[(Z)-2-(2-Aminothiazol-4-yl)-2-{(1R)-carboxyethoxyimino}acetamid]-3-(1-ethylpyridinium-4-ylthiomethyl)-ceph-3-em-4-carboxylate]: the MIC in assay [1] (setting [25]) was 0.05 µg/mL (≈ 0.0844 µM); in [2], 1.56 µg/mL (≈ 2.63 µM); in [3], 0.1 µg/mL (≈ 0.169 µM); in assay [4], less than 0.025 µg/mL; in assay [5], 3.13 µg/mL (≈ 5.28 µM); in assay [6], 0.2 µg/mL (≈ 0.337 µM). The MIC stood at 0.39 µg/mL (≈ 0.658 µM) in [7]; 0.1 µg/mL (≈ 0.169 µM) in assay [8]; 0.2 µg/mL (≈ 0.337 µM) in assay [9]; 0.1 µg/mL (≈ 0.169 µM) in assay [10]; 3.13 µg/mL (≈ 5.28 µM) in [11]; 0.05 µg/mL (≈ 0.0844 µM) in [12]. The MIC in assay [13] turned out to be 1.56 µg/mL (≈ 2.63 µM); in [14] (setting [26]), 0.1 µg/mL (≈ 0.169 µM); in assay [15], 6.25 µg/mL (≈ 10.5 µM); in assay [16], 0.05 µg/mL (≈ 0.0844 µM); in assay [17], 0.1 µg/mL (≈ 0.169 µM); in [18] it was 3.13 µg/mL (≈ 5.28 µM). Moreover, the MIC was 6.25 µg/mL (≈ 10.5 µM) in assay [19]; 0.78 µg/mL (≈ 1.32 µM) in [20]; less than 0.025 µg/mL in assay [21]; 6.25 µg/mL (≈ 10.5 µM) in assay [22]; 0.1 µg/mL (≈ 0.169 µM) in assay [23].

Take `C[C@H](O/N=C(\C(=O)N[C@@H]1C(=O)N2C(C(=O)[O-])=C(CSc3cc[n+](C)cc3)CS[C@H]12)c1csc(N)n1)C(=O)O` [drawing 15]: the MIC-value in assay [3] (Table 2, Proteus vulgaris GN76/C-1, by substituent B) is 0.05 µg/mL (≈ 0.0864 µM). The compound further registered an MIC in [24] of 0.78 µg/mL (≈ 1.35 µM).

For orientation: MIC means the lowest concentration that inhibits growth of the organism.
